From patent US7910751B2, “Heterocyclidene acetamide derivative” (Mochida Pharmaceutical Co., Ltd., priority 2005, dated 2011)

Molecular target: T1, human TRPV1 (Homo sapiens, UniProt Q8NER1)
T1 construct: expressed in transfected cells; host or cells: CHO-K1
Test: Measurement of capsaicin-induced Ca influx in human TRPV1 transformed CHO cell line using FDSS-6000
Type: cell-based
Conditions: concentration at which the capsaicin concentration-reaction curve is shifted two times to the right, human TRPV1 transformed CHO cells

T1 sequence (Q8NER1 whole entry): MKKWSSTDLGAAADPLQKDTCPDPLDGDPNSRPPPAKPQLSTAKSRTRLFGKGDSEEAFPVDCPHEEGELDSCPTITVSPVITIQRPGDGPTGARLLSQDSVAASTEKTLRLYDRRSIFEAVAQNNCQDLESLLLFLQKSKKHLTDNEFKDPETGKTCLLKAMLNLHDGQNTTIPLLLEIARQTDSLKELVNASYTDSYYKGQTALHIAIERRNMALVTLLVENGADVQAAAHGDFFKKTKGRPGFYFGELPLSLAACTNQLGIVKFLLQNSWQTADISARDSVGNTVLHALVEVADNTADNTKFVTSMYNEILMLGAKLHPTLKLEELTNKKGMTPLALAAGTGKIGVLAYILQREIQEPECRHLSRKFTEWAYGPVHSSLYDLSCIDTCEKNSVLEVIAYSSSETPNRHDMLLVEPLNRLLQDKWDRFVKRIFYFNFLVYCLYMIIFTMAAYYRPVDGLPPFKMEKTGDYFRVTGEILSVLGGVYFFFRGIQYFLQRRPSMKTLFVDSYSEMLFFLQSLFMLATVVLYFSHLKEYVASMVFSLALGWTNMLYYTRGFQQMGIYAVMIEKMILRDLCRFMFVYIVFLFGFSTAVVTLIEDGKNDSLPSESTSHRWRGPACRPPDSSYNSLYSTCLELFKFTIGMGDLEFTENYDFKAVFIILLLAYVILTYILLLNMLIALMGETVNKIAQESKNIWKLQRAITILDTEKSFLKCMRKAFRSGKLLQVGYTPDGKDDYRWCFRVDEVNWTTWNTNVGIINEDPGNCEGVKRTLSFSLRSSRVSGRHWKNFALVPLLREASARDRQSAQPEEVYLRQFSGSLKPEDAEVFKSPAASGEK

Structure (SMILES)	A2 VALUE
O=C(/C=C1\CCN(C(=O)C2CCC2)c2cc(C(F)(F)F)ccc21)Nc1cccc2c1CC(O)CC2 (centres unmarked) [Example 84, (E)-2-(1-cyclobutanecarbonyl-7-trifluoromethyl-2,3-dihydroquinolin-4(1H)-ylidene)-N-(7-hydroxy-5,6,7,8-tetrahydronaphthalen-1-yl)acetamide]	A (compounds of the present invention having an A2 value of less than 100 nM are represented by A)
O=C(/C=C1\CCN(C(=O)C2CCC(F)(F)CC2)c2cc(C(F)(F)F)ccc21)Nc1cccc2c1CC(O)CC2 (centres unmarked) [Example 85, (E)-2-(1-(4,4-difluorocyclohexanecarbonyl)-7-trifluoromethyl-2,3-dihydroquinolin-4(1H)-ylidene)-N-(7-hydroxy-5,6,7,8-tetrahydronaphthalen-1-yl)acetamide]	A (compounds of the present invention having an A2 value of less than 100 nM are represented by A)
CC(C)CCC(=O)N1CC/C(=C\C(=O)Nc2cccc3c2CC(O)CC3)c2ccc(C(F)(F)F)cc21 (centres unmarked) [Example 86, (E)-2-(1-(4-methylpentanoyl)-7-trifluoromethyl-2,3-dihydroquinolin-4(1H)-ylidene)-N-(7-hydroxy-5,6,7,8-tetrahydronaphthalen-1-yl)acetamide]	A (compounds of the present invention having an A2 value of less than 100 nM are represented by A)
CC(C)CC(=O)N1CC/C(=C\C(=O)Nc2cccc3c2CC(O)CC3)c2ccc(C(F)(F)F)cc21 (centres unmarked) [Example 87, (E)-2-(1-(3-methylbutanoyl)-7-trifluoromethyl-2,3-dihydroquinolin-4(1H)-ylidene)-N-(7-hydroxy-5,6,7,8-tetrahydronaphthalen-1-yl)acetamide]	A (compounds of the present invention having an A2 value of less than 100 nM are represented by A)
O=C(/C=C1\CCN(C(=O)C2CCC(F)C2)c2cc(C(F)(F)F)ccc21)Nc1cccc2c1CC(O)CC2 (centres unmarked) [Example 88, (E)-2-(1-(3-fluorocyclopentanecarbonyl)-7-trifluoromethyl-2,3-dihydroquinolin-4(1H)-ylidene)-N-(7-hydroxy-5,6,7,8-tetrahydronaphthalen-1-yl)acetamide]	A (compounds of the present invention having an A2 value of less than 100 nM are represented by A)
CC1(C(=O)N2CC/C(=C\C(=O)Nc3cccc4c3CC(O)CC4)c3ccc(C(F)(F)F)cc32)CC1 (centres unmarked) [Example 89, (E)-2-(1-(1-methylcyclopropanecarbonyl)-7-trifluoromethyl-2,3-dihydroquinolin-4(1H)-ylidene)-N-(7-hydroxy-5,6,7,8-tetrahydronaphthalen-1-yl)acetamide]	A (compounds of the present invention having an A2 value of less than 100 nM are represented by A)
CC1(C(=O)N2CC/C(=C\C(=O)Nc3cccc4c3CC(O)CC4)c3ccc(C(F)(F)F)cc32)CCC1 (centres unmarked) [Example 90, (E)-2-(1-(1-methylcyclobutanecarbonyl)-7-trifluoromethyl-2,3-dihydroquinolin-4(1H)-ylidene)-N-(7-hydroxy-5,6,7,8-tetrahydronaphthalen-1-yl)acetamide]	A (compounds of the present invention having an A2 value of less than 100 nM are represented by A)
O=C(/C=C1\CCN(C(=O)CCC(F)(F)F)c2cc(C(F)(F)F)ccc21)Nc1cccc2c1CC(O)CC2 (centres unmarked) [Example 91, (E)-2-(1-(4,4,4-trifluorobutanoyl)-7-trifluoromethyl-2,3-dihydroquinolin-4(1H)-ylidene)-N-(7-hydroxy-5,6,7,8-tetrahydronaphthalen-1-yl)acetamide]	A (compounds of the present invention having an A2 value of less than 100 nM are represented by A)
O=C(/C=C1\CCN(C(=O)CC(F)(F)F)c2cc(C(F)(F)F)ccc21)Nc1cccc2c1CC(O)CC2 (centres unmarked) [Example 92, (E)-2-(1-(3,3,3-trifluoropropanoyl)-7-trifluoromethyl-2,3-dihydroquinolin-4(1H)-ylidene)-N-(7-hydroxy-5,6,7,8-tetrahydronaphthalen-1-yl)acetamide]	A (compounds of the present invention having an A2 value of less than 100 nM are represented by A)
O=C(/C=C1\CCN(C(=O)CCCC(F)(F)F)c2cc(C(F)(F)F)ccc21)Nc1cccc2c1CC(O)CC2 (centres unmarked) [Example 93, (E)-2-(1-(5,5,5-trifluoropentanoyl)-7-trifluoromethyl-2,3-dihydroquinolin-4(1H)-ylidene)-N-(7-hydroxy-5,6,7,8-tetrahydronaphthalen-1-yl)acetamide]	A (compounds of the present invention having an A2 value of less than 100 nM are represented by A)
O=C(/C=C1\CCN(C(=O)Cc2ccccc2)c2cc(C(F)(F)F)ccc21)Nc1cccc2c1CC(O)CC2 (centres unmarked) [Example 94, (E)-2-(1-phenylacetyl-7-trifluoromethyl-2,3-dihydroquinolin-4(1H)-ylidene)-N-(7-hydroxy-5,6,7,8-tetrahydronaphthalen-1-yl)acetamide]	A (compounds of the present invention having an A2 value of less than 100 nM are represented by A)
CCC(F)(F)C(=O)N1CC/C(=C\C(=O)Nc2cccc3c2CC(O)CC3)c2ccc(C(F)(F)F)cc21 (centres unmarked) [Example 95, (E)-2-(1-(2,2-difluorobutanoyl)-7-trifluoromethyl-2,3-dihydroquinolin-4(1H)-ylidene)-N-(7-hydroxy-5,6,7,8-tetrahydronaphthalen-1-yl)acetamide]	A (compounds of the present invention having an A2 value of less than 100 nM are represented by A)
CC(C)(F)C(=O)N1CC/C(=C\C(=O)Nc2cccc3c2CC(O)CC3)c2ccc(C(F)(F)F)cc21 (centres unmarked) [Example 96, (E)-2-(1-(2-fluoro-2-methylpropanoyl)-7-trifluoromethyl-2,3-dihydroquinolin-4(1H)-ylidene)-N-(7-hydroxy-5,6,7,8-tetrahydronaphthalen-1-yl)acetamide]	A (compounds of the present invention having an A2 value of less than 100 nM are represented by A)
O=C(/C=C1\CCN(C2CCCCC2)c2cc(C(F)(F)F)ccc21)Nc1ccc2cccnc2c1 [Example 97, (E)-2-(7-trifluoromethyl-2,3-dihydro-1-cyclohexylquinolin-4(1H)-ylidene)-N-(quinolin-7-yl)acetamide]	A (compounds of the present invention having an A2 value of less than 100 nM are represented by A)
Cc1ccc(S(=O)(=O)N2CC/C(=C\C(=O)Nc3ccc4cccnc4c3)c3ccc(C(F)(F)F)cc32)cc1 [Example 98, (E)-2-(7-trifluoromethyl-2,3-dihydro-1-(4-methylbenzenesulfonyl)quinolin-4(1H)-ylidene)-N-(quinolin-7-yl)acetamide]	A (compounds of the present invention having an A2 value of less than 100 nM are represented by A)
O=C(/C=C1\CCN(C(=O)C2CC2)c2cc(C(F)(F)F)ccc21)Nc1ccc2cccnc2c1 [Example 99, (E)-2-(7-trifluoromethyl-2,3-dihydro-1-cyclopropanecarbonylquinolin-4(1H)-ylidene)-N-(quinolin-7-yl)acetamide]	A (compounds of the present invention having an A2 value of less than 100 nM are represented by A)
COCCC(=O)N1CC/C(=C\C(=O)Nc2ccc3cccnc3c2)c2ccc(C(F)(F)F)cc21 [Example 100, (E)-2-(7-trifluoromethyl-2,3-dihydro-1-(3-methoxypropanoyl)quinolin-4(1H)-ylidene)-N-(quinolin-7-yl)acetamide]	A (compounds of the present invention having an A2 value of less than 100 nM are represented by A)
COC(=O)CCC(=O)N1CC/C(=C\C(=O)Nc2ccc3cccnc3c2)c2ccc(C(F)(F)F)cc21 [Example 101, (E)-2-(7-trifluoromethyl-2,3-dihydro-1-(3-(carbomethoxy)propanoyl)quinolin-4(1H)-ylidene)-N-(quinolin-7-yl)acetamide]	A (compounds of the present invention having an A2 value of less than 100 nM are represented by A)
O=C(/C=C1\CCN(C(=O)CC2CCCC2)c2cc(C(F)(F)F)ccc21)Nc1ccc2cccnc2c1 [Example 102, (E)-2-(7-trifluoromethyl-2,3-dihydro-1-(cyclopentylacetyl)quinolin-4(1H)-ylidene)-N-(quinolin-7-yl)acetamide]	A (compounds of the present invention having an A2 value of less than 100 nM are represented by A)
O=C(/C=C1\CCN(C(=O)C2CC2)c2cc(C(F)(F)F)ccc21)Nc1cccc2c1CC(O)CC2 (centres unmarked) [Example 105, (E)-2-(7-trifluoromethyl-2,3-dihydro-1-cyclopropanecarbonylquinolin-4(1H)-ylidene)-N-(7-hydroxy-5,6,7,8-tetrahydronaphthalen-1-yl)acetamide]	A (compounds of the present invention having an A2 value of less than 100 nM are represented by A)
O=C(/C=C1\CCNc2cc(C(F)(F)F)ccc21)Nc1cccc2c1CC(O)CC2 (centres unmarked) [Example 106, (E)-2-(7-trifluoromethyl-2,3-dihydroquinolin-4(1H)-ylidene)-N-(7-hydroxy-5,6,7,8-tetrahydronaphthalen-1-yl)acetamide]	A (compounds of the present invention having an A2 value of less than 100 nM are represented by A)
CCCCC(=O)N1CC/C(=C\C(=O)Nc2cccc3c2CC(O)C(=O)N3)c2ccc(C(F)(F)F)cc21 (centres unmarked) [Example 107, (E)-2-(7-trifluoromethyl-2,3-dihydro-1-pentanoylquinolin-4(1H)-ylidene)-N-(3,4-dihydro-3-hydroxy(1H)quinolin-2-on-5-yl)acetamide]	A (compounds of the present invention having an A2 value of less than 100 nM are represented by A)
CCCCC(=O)N1CC/C(=C\C(=O)Nc2cccc3c2CC(O)CN3)c2ccc(C(F)(F)F)cc21 (centres unmarked) [Example 108, (E)-2-(7-trifluoromethyl-2,3-dihydro-1-pentanoylquinolin-4(1H)-ylidene)-N-(3-hydroxy-1,2,3,4-tetrahydroquinolin-5-yl)acetamide]	A (compounds of the present invention having an A2 value of less than 100 nM are represented by A)
